We go through one molecule from patent US10626094B2 (La Jolla Institute of Allergy & Immunology, priority 2014, dated 2020).

Data set [1] in a line: plasma stability, human plasma. It is filed as in vitro ADME. The text has this:
(§1) Plasma stability is a measure of the stability of small molecules and peptides in plasma and is an important parameter, which can strongly influence the in vivo efficacy of a test compound. Drug candidates are exposed to enzymatic processes (proteinases. esterases) in plasma, and they can undergo intramolecular rearrangement or bind irreversibly (covalently) to proteins.

Data set [2] is described as follows: plasma stability, mouse plasma. It is filed as in vitro ADME.
Text: as §1

Data set [3] is described as follows: rodent pharmacokinetics in male C57BL/6 mice (IV, PO, IP). It is filed as in vivo, mouse. On the procedure: The inventors also examined ML400 (also described herein as MLS-0472870 or Compound D1) for its rodent pharmacokinetics. The probe Compound D1 was profiled in Male C57BL/6 Mice, with n=3 for each group studied (IV, IP and PO arms). The formulation used was 1.00 mg/mL in DMSO:Tween80:Water=5:5:90, which gave a clear solution. […] Enterohepatic circulation was also observed for this compound. This compound has acceptable parameters for future in vivo studies (see Table 4 and FIG. 13).

The next data set deals with LMPTP (Homo sapiens (Human), UniProt P24666). The data set can be described thus: mechanism of action: LMPTP activity on OMFP at increasing inhibitor concentrations (Michaelis-Menten). It is filed as biochemical. The method, then: Activity of 20 nM LMPTP on OMFP substrate in the presence of increasing concentrations of ML400. Reactions were conducted at 37° C. in 50 mM Bis-Tris, pH 6.0 with 1 mM DTT and 0.01% Triton X-100. Mean±SD is shown. Lines show fitting of data to the Michaelis-Menten equation. Note decrease in both Vmax and KM with increasing inhibitor concentration.

The mark [4] stands for this setting: male, C57BL/6, mouse, in vivo, iv, […].
The mark [5] stands for this setting: mouse, in vivo, male C57BL/6 mice, IP, 9.69 mg/kg.
Setting [6] is: mouse, in vivo, male C57BL/6 mice, PO, 29.6 mg/kg.

Each structure is given as a SMILES string.

LMPTP, sequence (P24666 whole entry): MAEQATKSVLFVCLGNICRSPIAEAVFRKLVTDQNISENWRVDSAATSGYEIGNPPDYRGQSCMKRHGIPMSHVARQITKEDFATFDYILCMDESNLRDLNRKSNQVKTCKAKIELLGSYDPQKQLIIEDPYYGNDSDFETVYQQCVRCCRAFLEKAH

The term half-life denotes the time in which the quantity being followed falls by half. A high value points to slow loss. What is called AUC(0-inf) is the area under the concentration-time curve extrapolated to infinity. A lower AUC(0-inf) goes with less exposure. For orientation: Cmax means the highest concentration seen after dosing. Broadly, the Tmax is the time from dosing to the highest level. Consider `COc1ccc(-c2cc(NCCCN3CCCCC3)c3ccccc3n2)cc1` [Compound D1, 2-(4-methoxyphenyl)-N-(3-(piperidin-1-yl)propyl)quinolin-4-amine], for which the “Plasma Stability % Remaining @ 3 hrs” value in data set [1] (Human plasma, 3 hrs) is recorded as 89.03%. Besides, the plasma stability result in data set [1] (human plasma) was “good stability”. For the same molecule, in data set [2] (Mouse plasma, 3 hrs), the “Plasma Stability % Remaining @ 3 hrs” value is recorded as 68.97%. For the same molecule, the plasma stability result in data set [2] (mouse plasma) was “good stability”. For the same molecule, the enterohepatic circulation result in data set [3] (male C57BL/6 mice) is listed as “observed”. Also, in data set [3] (male C57BL/6 mice, IV, […]), the “Cl (mL/min/kg)” value is reported as “Low clearance” and the “Vdss (L/kg)” value is “large volume of distribution”. Further, in data set [3] (setting [4]), the clearance amounted to 25.8 mL/min/kg and the half-life is 39.6 h. The Vd in data set [3] (male, C57BL/6, mouse, in vivo, iv, […], read-out: Vdss) was determined as 83.1 L/kg. In data set [3] (setting [5]), the AUC(0-inf) is 4520 ng·h/mL, the Cmax was found to be 365 ng/mL, the Tmax came out at 0.33 h and the half-life was 32.5 h. Moreover, in data set [3] (setting [6]), the AUC(0-inf) was determined as 6380 ng·h/mL, the highest level (Cmax) was 3210 ng/mL, the time to peak (Tmax) was 3.33 h and the half-life was 29.2 h. Moreover, the “mechanism of action of LMPTP inhibition” value on LMPTP (20 nM LMPTP, OMFP substrate, 37° C., pH 6.0) was “uncompetitive”. Moreover, at LMPTP (increasing inhibitor concentration), the “effect on Vmax and KM” value is “lowering both Vmax and KM”.
